From US20110224297A1, “Methods of administering prostratin and structural analogs thereof” (priority 2008, published 2011)
Read-outs that look alike come from different tables or passages of the source.

How the values were obtained:
[1] = In vitro metabolism in rat liver microsomes; assay type: in vitro ADME
Excerpt: In vitro metabolism of prostratin was investigated using mouse, rat, monkey, and human liver microsomes (Gentest). […] Attempts to identify the metabolite by LC/MS/MS were unsuccessful due to the low amounts present in the reaction mixtures (FIG. 1).

[2] = tested on: resting CD4+ T cells derived from HIV positive patients; assay: Induction of HIV-1 expression in resting CD4+ T cells from HIV positive patients on HAART (p24, co-culture); assay type: cell-based, human
Method: The ability of prostratin to induce HIV-1 expression in cultures of highly purified resting CD4+ T cells derived from six HIV positive patients on HAART therapy with undetectable plasma viral load (<50 copies/ml) and CD4 cell counts above 350 cells/mm^3 was evaluated. PBMCs were separated using Ficol Hypaque gradient and resting CD4+ T cells were purified using commercially available CD4+ T cell isolation kit (Miltenyi Biotec) Immediately after purification, resting CD4+ T cells were treated for 3 days with two antiretrovirals to which the patient had not previously been exposed. Antiretrovirals were used at concentrations 10 times the 50% inhibitory concentration for wild-type HIV-1 to ensure elimination of any actively replicating virus. Three days after in vitro incubation with antiretrovirals, cells were washed and incubated for 5 h, 24 h, or 48 h with prostratin (50-500 ng/ml), in the absence or presence of 1 mM valproic acid (sodium salt, SIGMA), 10 μg/ml PHA (SIGMA), 50 U IL-2/ml (AIDS depository of reagents, NIH), or in the absence of drugs. At the end of each incubation period, cells were co-cultured with CD8-depleted PBMCs from healthy donors. P24 was measured at days 0, 4, 7, 14, 21, 28, 35 and 42 days.

[3] = tested on: Salmonella typhimurium tester strains TA98, TA100, TA1535, and TA1537; assay: Salmonella/mammalian-microsome reverse mutation assay with confirmatory assay; assay type: cell-based; details: 100 to 5000 μg per plate; presence or absence of S9
Excerpt: (§1) The objective of this study was to evaluate the test article, prostratin, for the ability to induce reverse mutations either in the presence or absence of mammalian microsomal enzymes at 1) the histidine locus in the genome of several strains of Salmonella typhimurium and at 2) the tryptophan locus of Escherichia coli tester strain WP2uvrA.
(§2) The doses tested in the mutagenicity assay were selected based on the results of a dose range finding study using tester strains TA100 and WP2uvrA and ten doses of test article ranging from 6.67 to 5000 μg per plate, one plate per dose, both in the presence and absence of S9 mix.
(§3) The tester strains used in the mutagenicity assay were Salmonella typhimurium tester strains TA98, TA100, TA1535, and TA1537 and Escherichia coli tester strain WP2uvrA. The assay was conducted with five doses of test article in both the presence and absence of S9 mix along with concurrent vehicle and positive controls using three plates per dose. The doses tested were 100, 333, 1000, 3330, and 5000 μg per plate in both the presence and absence of S9 mix. The results of the initial mutagenicity assay were confirmed in an independent experiment.

[4] = tested on: Escherichia coli tester strain WP2uvrA; assay: Escherichia coli/mammalian-microsome reverse mutation assay with confirmatory assay; assay type: cell-based; details: 100 to 5000 μg per plate; presence or absence of S9
Excerpt: as §1, §2, §3

[5] = Pharmacokinetic studies in mice; assay type: in vivo, CD2F1 mice
Method: Studies were conducted in CD2F1 mice using both the i.p. route (1.9 mg/kg) and the i.v. route (0.76 mg/kg). The vehicle was 10% DMSO: 10% Cremophor: 80%:0.9% saline for both routes. Doses used were preciously determined as maximally tolerated. Drug was detected out to 4 hr but was only quantifiable out to 3 hr post drug administration (see FIG. 5A, B). Data are presented as mean±SD where n=5. Data that were detected beyond 3 hr post drug administration are shown as “BLQ” (below the limit of quantification of the validated assay). Data were fit using 1 and 2 compartment pharmacokinetic models using ADAPT II computer program. In general the 2-compartment model provided a better fit for the data than did a 1-compartment model (Table 2). […] For the two-compartment model the situation was reversed (i.e. more variance for the model predicted PK parameters with lower residual values for the individual plasma concentration data).

[6] = Single-dose range-finding study in rats; assay type: in vivo, Fisher rats; details: male, Fisher, rat, in vivo, intravenous; rats, single bolus dose; read-out: Maximum Tolerated Dose (MTD)
Method: (§4) A single bolus dose of prostratin (0, 0.05, 0.1, 0.2, 0.4, and 0.8 mg/kg which correspond to 0, 0.3, 0.6, 1.2, 2.4, and 4.8 mg/m^2) was administered to Fisher rats (3 males/group) to determine the maximally tolerated dose and relative drug toxicity. […] Clinical signs of toxicity included decreased activity, prostration, tremors, and altered respiratory rate (decreased in some cases, increased in others). […] In the 0.4 mg/kg dose group, ALT and AST serum levels were 2- and 3-fold higher, respectively, than group mean ALT and AST values for control rats, and potassium level was decreased in 61% of the value obtained for control group animals. […] The Maximum Tolerated Dose (MTD) in rats is between 0.2-0.4 mg/kg dose of prostratin.

Fisher rats = assay: Single-dose range-finding study in rats; assay type: in vivo; details: for mortality (died on Day 1 or Day 2): male Fisher rats
Method: as §4

[7] = mice, IP (1.9 mg/kg), 2-compartment model
[8] = mice, IV (0.76 mg/kg), 2-compartment model
[9] = mice, i.p. 1.9 mg/kg and i.v. 0.76 mg/kg

SMILES: CC(=O)O[C@@]12C[C@@H](C)[C@@]3(O)[C@@H](C=C(CO)C[C@]4(O)C(=O)C(C)=C[C@@H]34)[C@@H]1C2(C)C [prostratin, 12-deoxyphorbol 13-acetate]
- metabolism (time-dependent loss of parent compound) [1]: substantially less
- HIV-1 expression in resting T cells ([2]; 50 ng/ml): HIV-1 activation events, although with lower frequency
- time of co-culture with CD8-depleted PBMC after which robust HIV replication was observed ([2]; 24 h with 150 ng/ml): 2-4 weeks
- HIV-1 expression in resting T cells ([2]; ex-vivo treatment for 24 h with 150 ng/ml): efficient activation of the latent reservoir
- mean number of revertants per plate [3]: did not cause a positive increase
- mean number of revertants per plate [4]: did not cause a positive increase
- clearance ([5]; CD2F1, mouse, plasma, intraperitoneal and intravenous, mice, both the i.p and i.v. routes): 200 to 250 mL/min/kg
- half-life ([5]; CD2F1, mouse, plasma, ip, 1.9 mg/kg, mice, IP (1.9 mg/kg), 2-compartment model, read-out: T1/2 a (converted)): 20.4 min
- half-life ([5]; CD2F1, mouse, plasma, ip, 1.9 mg/kg, mice, IP (1.9 mg/kg), 2-compartment model, read-out: T1/2 b (converted)): 12600 min
- half-life ([5]; CD2F1, mouse, plasma, ip, 1.9 mg/kg, mice, IP (1.9 mg/kg), read-out: T1/2 [1-compartment model] (converted)): 20.4 min
- half-life ([5]; CD2F1, mouse, plasma, iv, 0.76 mg/kg, mice, IV (0.76 mg/kg), 2-compartment model, read-out: T1/2 a (converted)): 27.6 min
- half-life ([5]; CD2F1, mouse, plasma, iv, 0.76 mg/kg, mice, IV (0.76 mg/kg), 2-compartment model, read-out: T1/2 b (converted)): 1170 min
- half-life ([5]; CD2F1, mouse, plasma, iv, 0.76 mg/kg, mice, IV (0.76 mg/kg), read-out: T1/2 [1-compartment model] (converted)): 31.8 min
- CLt [5, 7]: 219.2 mL/min/kg
- Vc [5, 7]: 11.03 L/kg
- CLt [5, 8]: 252.7 mL/min/kg
- Vc [5, 8]: 17.32 L/kg
- time out to which drug was detected in plasma [5, 9]: 4 h
- time out to which drug was quantifiable in plasma [5, 9]: 3 h
- maximally tolerated dose ([5]; mice, i.p. route): 1.9 mg/kg
- maximally tolerated dose ([5]; mice, i.v. route): 0.76 mg/kg
- cumulative urinary excretion ([5]; pooled samples from five mice dosed i.p. (1.9 mg/kg), up to 24 hours): < 5 % of the administered dose
- MTD [6]: 0.2 to 0.4 mg/kg
- albumin (ALB) level relative to control (Fisher rats; 0.2 mg/kg dose group): 88%
- ALT serum level versus control (Fisher rats; 0.4 mg/kg dose group): 2 fold
- AST serum level versus control (Fisher rats; 0.4 mg/kg dose group): 3 fold
- albumin (ALB) level relative to control (Fisher rats; 0.4 mg/kg dose group): 76%
- potassium level relative to control (Fisher rats; 0.4 mg/kg dose group): 61%
- reversibility of adverse events (Fisher rats; PLT, ALT, AST, ALB within normal range by day 8): reversible
- increase in neutrophile counts (Fisher rats; day 3, 0.4 mg/kg dose group): 1.7 fold
- decrease in platelet (PLT) counts compared to control (Fisher rats; day 3, 0.4 and 0.2 mg/kg dose groups): 62-68%
- mortality (died on Day 1 or Day 2) (Fisher rats; single bolus 0.4 mg/kg): two of the three
- mortality (died on Day 1 or Day 2) (Fisher rats; single bolus 0.8 mg/kg): 3/3
